Source: patent US8039492B2, “Substituted cyclic compound, its preparation process and its medical use” (Shanghai Institute of Materia Medica, Chinese Academy of …, priority 2005, dated 2011)

Columns and labels:
GLP-1R [1] = biological target: T1, GLP-1R (Rattus norvegicus, UniProt P32301); experiment: Antagonistic experiment with Exendin9-39 on S4P-induced reporter gene expression in HEK 293/GLP-1R+Luc cells; type: cell-based
T1 construct: expressed in transfected cells; host or cells: HEK 293 (human embryonic kidney), stably transfected; self-made by National New Drugs Screening Center
T1 sequence (P32301 22-463): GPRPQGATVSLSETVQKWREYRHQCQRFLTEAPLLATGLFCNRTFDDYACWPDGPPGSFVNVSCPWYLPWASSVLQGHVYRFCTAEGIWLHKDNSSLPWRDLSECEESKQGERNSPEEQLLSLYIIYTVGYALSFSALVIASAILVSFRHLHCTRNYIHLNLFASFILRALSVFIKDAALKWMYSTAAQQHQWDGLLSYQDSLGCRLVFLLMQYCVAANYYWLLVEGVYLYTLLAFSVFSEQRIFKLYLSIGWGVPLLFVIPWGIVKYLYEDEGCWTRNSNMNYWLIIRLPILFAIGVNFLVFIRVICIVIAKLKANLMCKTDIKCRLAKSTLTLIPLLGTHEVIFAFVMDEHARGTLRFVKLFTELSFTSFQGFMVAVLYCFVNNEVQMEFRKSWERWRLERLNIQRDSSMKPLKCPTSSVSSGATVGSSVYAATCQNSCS
Source text: 3. Antagonistic Experiment with Exendin9-39
In order to corroborate that the active compounds had receptor specificity with respect to their activating effects on reporter gene and intracellular cAMP, Exendin9-39 (Eur. J. Pharmacol, 1994, 269: 183-191; Metabolism 2004, 53:252-259.), a specific antagonist of GLP-1R, was used to validate whether it could antagonize the agonistic activity of the above representative compounds to GLP-1R.
(§1) Cell strain: HEK 293/GLP-1R+Luc cell strain, in which GLP-1R and luciferase are stably expressed (self-made by National New Drugs Screening Center);
(§2) HEK 293/GLP-1R+Luc cells were inoculated, in a quantity of 20,000/100 μl/well, into a 96-well culture plate, and cultured at 37° C. overnight with a DMEM culture medium containing 10% fetal bovine serum and 500 μg/ml G418. Exendin9-39 was diluted to a certain concentration gradient, which was then added, in a quantity of 1 μl/well, into the above 96-well culture plate. The culture was performed under the conditions of 37° C., 5% CO2 for 6 h. Thereafter, the activity of luciferase was detected according to the specification in the kit of Steady-Glo™ luciferase analytic system, and the reading was performed by using a Victor^2 plate-reading machine.

GLP-1R [2] = biological target: T1, GLP-1R; experiment: Testing the expression of reporter gene (luciferase under cAMP response element) in HEK 293/GLP-1R+Luc cells; type: cell-based; conditions: 6 h
Source text: 1. Testing the Expression of Reporter Gene
(§3) GLP-1R is a G-protein coupling receptor. When GLP-1R binds to an agonist, the Ga subunit of G protein is activated to stimulate adenylate cyclase, which leads to the increase in the concentration of intracellular cAMP. Since the promoter region of proinsulin gene has a cAMP response element, cAMP promotes, after binding to this response element, the transcription of the proinsulin gene, thereby stimulating the expression and secretion of insulin (Diabetes, 2000, Vol. 49: 1156-1164). The experimental method employs a human embryonal nephric cell strain (HEK 293) which is stably transfected with the expression vector of GLP-1R gene and the expression vector of luciferase reporter gene under the regulation of cAMP response element, to detect its response to the candidate compound (Cell Biology, 1992, Vol. 89: 8641-8645; Proc. Natl. Acad. Sci. U.S.A. 1987, Vol. 84: 3434-3438). When screening the candidate compounds, the compounds that may induce the expression of luciferase reporter gene are regarded as having the activity of activating GLP-1R.
as §1
as §2, with “Exendin9-39 was diluted to a certain concentration gradient, which was then added, in a quantity of 1 μl/well, into the above 96-well culture plate.” left out

HEK 293/GLP-1R+Luc cells = experiment: Cytotoxicity noted in the reporter gene test; type: cell-based, human; conditions: 6 h
Source text: as §3, with “When screening the candidate compounds, the compounds that may induce the expression of luciferase reporter gene are regarded as having the activity of activating GLP-1R.” left out
as §2, with “Exendin9-39 was diluted to a certain concentration gradient, which was then added, in a quantity of 1 μl/well, into the above 96-well culture plate. The culture was performed under the conditions of 37° C., 5% CO2 for 6 h.” left out

GLP-1R [3] = biological target: T1, GLP-1R; experiment: Determination of the concentration of intracellular cAMP (CatchPoint Cyclic AMP kit) in HEK 293/GLP-1R+Luc cells; type: cell-based; conditions: 10 min
Source text: 2. Determination of the Concentration of Intracellular cAMP
Since the concentration of intracellular cAMP can only be indirectly evaluated according to the above method for detecting the activation of reporter gene, it is necessary to determine the influence of active compounds on the concentration of intracellular cAMP by using a cAMP-determining kit, i.e., a functional re-screening.
cAMP-determining kit (Molecular Devices Co., CatchPoint® Cyclic AMP kit);
HEK 293/GLP-1R+Luc cell strain, in which GLP-1R and luciferase are stably expressed (self-made by National New Drugs Screening Center);
HEK 293/GLP-1R+Luc cells were inoculated, in a quantity of 20,000/100 μl/well, into a 96-well culture plate, and cultured at 37° C. overnight. The candidate compounds S4P, S3-20-32, S3-11-14, S6-14 and S8 were respectively diluted to a certain concentration gradient, which were then added, in a quantity of […], into the above 96-well culture plate. The culture was performed under the conditions of 37° C., 5% CO2 for 10 min. Thereafter, the concentration of intracellular cAMP was determined according to the specification in CatchPoint® Cyclic AMP kit.
The lower the reading was, the higher the concentration of intracellular cAMP was.

[4] = final concentration 0.00001 mg/ml
[5] = final concentration 0.00003 mg/ml
[6] = final concentration 0.0001 mg/ml
[7] = final concentration 0.0003 mg/ml
[8] = final concentration 0.001 mg/ml
[9] = final concentration 0.003 mg/ml

Exendin9-39 [reference compound]
effect on the expression of reporter gene induced by S4P (GLP-1R [1]; Table 3, FIG. 6): inhibit, in a dose-dependent manner

COc1cc(C2C(NC(=O)c3ccc(NC(=O)C4CCCC4)cc3)(C(=O)O)C(c3ccc(OC(=O)c4cccs4)c(OC)c3)C2(NC(=O)c2ccc(NC(=O)C3CCCC3)cc2)C(=O)O)ccc1OC(=O)c1cccs1 (centres unmarked) [Compound S4P]
expression of the reporter gene (% reaction, taking the reaction of 30 nM GLP-1 as 100%) (GLP-1R [2]; final concentration 0.000003 mg/ml): 5.157%
expression of the reporter gene (% reaction, taking the reaction of 30 nM GLP-1 as 100%) (GLP-1R [2]; [4]): 5.151%
expression of the reporter gene (% reaction, taking the reaction of 30 nM GLP-1 as 100%) (GLP-1R [2]; [5]): 5.276%
expression of the reporter gene (% reaction, taking the reaction of 30 nM GLP-1 as 100%) (GLP-1R [2]; [6]): 5.697%
expression of the reporter gene (% reaction, taking the reaction of 30 nM GLP-1 as 100%) (GLP-1R [2]; [7]): 10.19%
expression of the reporter gene (% reaction, taking the reaction of 30 nM GLP-1 as 100%) (GLP-1R [2]; [8]): 22.23%
expression of the reporter gene (% reaction, taking the reaction of 30 nM GLP-1 as 100%) (GLP-1R [2]; [9]): 35.55%
expression of the reporter gene (% reaction, taking the reaction of 30 nM GLP-1 as 100%) (GLP-1R [2]; final concentration 0.01 mg/ml): 41.19%
cytotoxicity in the reporter gene test (HEK 293/GLP-1R+Luc cells; final concentration 0.03 mg/ml): cytotoxic
cytotoxicity in the reporter gene test (HEK 293/GLP-1R+Luc cells; final concentration 0.1 mg/ml): cytotoxic
antagonistic effect of Exendin9-39 on S4P (% reaction, taking the reaction of 3 μM S4P as 100%) (GLP-1R [1]; Exendin9-39 final concentration 0.03 nM): 101.8115%
antagonistic effect of Exendin9-39 on S4P (% reaction, taking the reaction of 3 μM S4P as 100%) (GLP-1R [1]; Exendin9-39 final concentration 0.1 nM): 96.64%
antagonistic effect of Exendin9-39 on S4P (% reaction, taking the reaction of 3 μM S4P as 100%) (GLP-1R [1]; Exendin9-39 final concentration 0.3 nM): 83.84%
antagonistic effect of Exendin9-39 on S4P (% reaction, taking the reaction of 3 μM S4P as 100%) (GLP-1R [1]; Exendin9-39 final concentration 1 nM): 90.78%
antagonistic effect of Exendin9-39 on S4P (% reaction, taking the reaction of 3 μM S4P as 100%) (GLP-1R [1]; Exendin9-39 final concentration 3 nM): 72.84%
antagonistic effect of Exendin9-39 on S4P (% reaction, taking the reaction of 3 μM S4P as 100%) (GLP-1R [1]; Exendin9-39 final concentration 10 nM): 52.48%
antagonistic effect of Exendin9-39 on S4P (% reaction, taking the reaction of 3 μM S4P as 100%) (GLP-1R [1]; Exendin9-39 final concentration 30 nM): 32.33%
antagonistic effect of Exendin9-39 on S4P (% reaction, taking the reaction of 3 μM S4P as 100%) (GLP-1R [1]; Exendin9-39 final concentration 100 nM): 18.77%
antagonistic effect of Exendin9-39 on S4P (% reaction, taking the reaction of 3 μM S4P as 100%) (GLP-1R [1]; Exendin9-39 final concentration 300 nM): 15.97%
antagonistic effect of Exendin9-39 on S4P (% reaction, taking the reaction of 3 μM S4P as 100%) (GLP-1R [1]; Exendin9-39 final concentration 1000 nM): 27.97%
antagonistic effect of Exendin9-39 on S4P (% reaction, taking the reaction of 3 μM S4P as 100%) (GLP-1R [1]; Exendin9-39 final concentration 3000 nM): 14.57%
antagonistic effect of Exendin9-39 on S4P (% reaction, taking the reaction of 3 μM S4P as 100%) (GLP-1R [1]; Exendin9-39 final concentration 10000 nM): 15.22%
receptor specificity of the biological activity (GLP-1R [1]; antagonised by Exendin9-39): mediated by GLP-1R
concentration of the intracellular cAMP (relative fluoresence intensity; lower reading = higher cAMP) (GLP-1R [3]; [4]): 3536.618 RFU
concentration of the intracellular cAMP (relative fluoresence intensity; lower reading = higher cAMP) (GLP-1R [3]; [5]): 2924.461 RFU
concentration of the intracellular cAMP (relative fluoresence intensity; lower reading = higher cAMP) (GLP-1R [3]; [6]): 2985.794 RFU
concentration of the intracellular cAMP (relative fluoresence intensity; lower reading = higher cAMP) (GLP-1R [3]; [7]): 2708.597 RFU
concentration of the intracellular cAMP (relative fluoresence intensity; lower reading = higher cAMP) (GLP-1R [3]; [8]): 1910.855 RFU
concentration of the intracellular cAMP (relative fluoresence intensity; lower reading = higher cAMP) (GLP-1R [3]; [9]): 2072.988 RFU
concentration of the intracellular cAMP (relative fluoresence intensity; lower reading = higher cAMP) (GLP-1R [3]; final concentration 0.01 mg/ml): 2310.616 RFU
concentration of the intracellular cAMP (relative fluoresence intensity; lower reading = higher cAMP) (GLP-1R [3]; final concentration 0.03 mg/ml): 2480.017 RFU
